From patent US12281122B1, “PI3K inhibitors” (Cogent Biosciences, Inc., priority 2023, dated 2025)

Assays:
[1] = tested on: T47D (PI3Kα-H1047R) cell line; assay: HTRF phospho-AKT(S473) cell assay in T47D cells; format: cell-based, human
In short: (§1)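 pAKT(S473) in lysates read by HTRF after a 2 h, 37 °C compound exposure (12-point 1:3 series, max 0.5% DMSO). SKBR3 (wild type, top 10 μM) received 70 ng/ml PDGF-BB during the final 15 min; T47D (H1047R, top 5 μM) was unstimulated. IC50 values derived from the dose-response.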

[2] = tested on: SKBR3 (PI3Kα-Wild Type) cell line; assay: HTRF phospho-AKT(S473) cell assay in SKBR3 cells; format: cell-based, human
In short: as §1

[3] = Homo sapiens; T47D (PI3Kα-H1047R) cells, HTRF phospho-AKT(S473), 2 hours compound incubation
[4] = Homo sapiens, SK-BR-3; SKBR3 (PI3Kα-Wild Type) cells, HTRF phospho-AKT(S473), 2 hours compound incubation, PDGF-BB stimulated
[5] = Homo sapiens; HTRF phospho-AKT(S473), T47D (PI3Kα-H1047R) cells, 2 hours compound incubation
[6] = Homo sapiens, SK-BR-3; HTRF phospho-AKT(S473), SKBR3 (PI3Kα-Wild Type) cells, 2 hours compound incubation, PDGF-BB stimulated

`Cc1cc([C@@H](C)Nc2ccc(Cl)nc2C(=O)NS(C)(=O)=O)c2nc(N3Cc4cnn(-c5ccc(C#N)cc5)c4C3)n(C)c(=O)c2c1` [Compound 240, (R)-6-chloro-3-((1-(2-(1-(4-cyanophenyl)-4,6-dihydropyrrolo[3,4-c]pyrazol-5(1H)-yl)-3,6-dimethyl-4-oxo-3,4-dihydroquinazolin-8-yl)ethyl)amino)-N-(methylsulfonyl) picolinamide] was tested, and the IC50 [1, 3] was under 0.25 µM and the IC50 [2, 4] was 1 to 5 µM.

For `Cc1cc([C@@H](C)Nc2ccc(Cl)nc2C(=O)NS(C)(=O)=O)c2nc(N3CCC(c4nc(C)nn4C(F)F)CC3)n(C)c(=O)c2c1` [Compound 724, (R)-6-chloro-3-((1-(2-(4-(1-(difluoromethyl)-3-methyl-1H-1,2,4-triazol-5-yl)piperidin-1-yl)-3,6-dimethyl-4-oxo-3,4-dihydroquinazolin-8-yl)ethyl)amino)-N-(methylsulfonyl) picolinamide], the IC50 [1, 5] was 0.25 to 0.5 µM and the IC50 [2, 6] was 1 to 5 µM.

For `Cc1cc([C@@H](C)Nc2ccc(Cl)nc2C(=O)NS(C)(=O)=O)c2nc(N3CCC(c4ccn(C5COC5)n4)CC3)n(C)c(=O)c2c1` [Compound 447, (R)-6-chloro-3-((1-(3,6-dimethyl-2-(4-(1-(oxetan-3-yl)-1H-pyrazol-3-yl)piperidin-1-yl)-4-oxo-3,4-dihydroquinazolin-8-yl)ethyl)amino)-N-(methylsulfonyl) picolinamide], the IC50 [1, 5] was under 0.25 µM and the IC50 [2, 6] was 1 to 5 µM.

`Cc1cc([C@@H](C)Nc2ccc(Cl)nc2C(=O)NS(C)(=O)=O)c2nc(N3CCC4(CCCN(c5ccn(C)n5)C4)C3)n(C)c(=O)c2c1` (stereo partly drawn) [Compound 708, 6-chloro-3-(((1R)-1-(3,6-dimethyl-2-(7-(1-methyl-1H-pyrazol-3-yl)-2,7-diazaspiro[4.5]decan-2-yl)-4-oxo-3,4-dihydroquinazolin-8-yl)ethyl)amino)-N-(methylsulfonyl) picolinamide] showed an IC50 [1, 5] of 0.25 to 0.5 µM and an IC50 [2, 6] of at least 5 µM.

In the case of `Cc1cc([C@@H](C)Nc2ccc(Cl)nc2C(=O)NS(C)(=O)=O)c2nc(N3CCC[C@H](c4cnn(C)c4)C3)n(C)c(=O)c2c1` (relative stereo) [Compound 194, 6-chloro-3-(((R)-1-(3,6-dimethyl-2-((R*)-3-(1-methyl-1H-pyrazol-4-yl)piperidin-1-yl)-4-oxo-3,4-dihydroquinazolin-8-yl)ethyl)amino)-N-(methylsulfonyl) picolinamide], the IC50 [1, 3] is reported as under 0.25 µM and the IC50 [2, 4] is reported as 1 to 5 µM.

In the case of `Cc1cc([C@@H](C)Nc2ccc(Cl)nc2C(=O)NS(C)(=O)=O)c2nc(N3CCC(c4ccn(C)n4)CC3)n(C)c(=O)c2c1` [Compound 178, (R)-6-chloro-3-((1-(3,6-dimethyl-2-(4-(1-methyl-1H-pyrazol-3-yl)piperidin-1-yl)-4-oxo-3,4-dihydroquinazolin-8-yl)ethyl)amino)-N-(methylsulfonyl) picolinamide], the IC50 [1, 3] is reported as under 0.25 µM and the IC50 [2, 4] is reported as 1 to 5 µM.

With `COc1nccc(N2C[C@H]3C[C@@H]2CN3c2nc3c([C@@H](C)Nc4ccc(Cl)nc4C(=O)NS(C)(=O)=O)cc(C)cc3c(=O)n2C)n1` [Compound 582, 6-chloro-3-(((R)-1-(2-((1R,4R)-5-(2-methoxypyrimidin-4-yl)-2,5-diazabicyclo [2.2.1]heptan-2-yl)-3,6-dimethyl-4-oxo-3,4-dihydroquinazolin-8-yl)ethyl)amino)-N-(methylsulfonyl) picolinamide] the IC50 [1, 5] was 0.25 to 0.5 µM and the IC50 [2, 6] was at least 5 µM.

In the case of `COCCn1ncc2cc(-c3nc4c([C@@H](C)Nc5ccc(Cl)nc5C(=O)NS(C)(=O)=O)cc(C)cc4c(=O)n3C)ccc21` [Compound 791, (R)-6-chloro-3-((1-(2-(1-(2-methoxyethyl)-1H-indazol-5-yl)-3,6-dimethyl-4-oxo-3,4-dihydroquinazolin-8-yl)ethyl)amino)-N-(methylsulfonyl) picolinamide], the IC50 [1, 5] is reported as under 0.25 µM and the IC50 [2, 6] is reported as 1 to 5 µM.

With `Cc1cnc(C2CCN(c3nc4c([C@@H](C)Nc5ccc(Cl)nc5C(=O)NS(C)(=O)=O)cc(Cl)cc4c(=O)n3C)CC2)cn1` [Compound 442, (R)-6-chloro-3-((1-(6-chloro-3-methyl-2-(4-(5-methylpyrazin-2-yl)piperidin-1-yl)-4-oxo-3,4-dihydroquinazolin-8-yl)ethyl)amino)-N-(methylsulfonyl) picolinamide] the IC50 [1, 5] was under 0.25 µM and the IC50 [2, 6] was 1 to 5 µM.

`COc1cc([C@H]2[C@@H]3CN(c4nc5c([C@@H](C)Nc6ccc(Cl)nc6C(=O)NS(C)(=O)=O)cc(C)cc5c(=O)n4C)C[C@@H]32)n(C)n1` [Compound 519, 6-chloro-3-(((R)-1-(2-((1R,5S,6R)-6-(3-methoxy-1-methyl-1H-pyrazol-5-yl)-3-azabicyclo[3.1.0]hexan-3-yl)-3,6-dimethyl-4-oxo-3,4-dihydroquinazolin-8-yl)ethyl)amino)-N-(methylsulfonyl) picolinamide] was tested, and the IC50 [1, 5] was under 0.25 µM and the IC50 [2, 6] was 1 to 5 µM.

Work on `C[C@@H](Nc1ccc(Cl)nc1C(=O)NS(C)(=O)=O)c1cc(F)cc2c(=O)n(C)c(N3CCC(c4nn(C)cc4F)CC3)nc12` [Compound 364, (R)-6-chloro-3-((1-(6-fluoro-2-(4-(4-fluoro-1-methyl-1H-pyrazol-3-yl)piperidin-1-yl)-3-methyl-4-oxo-3,4-dihydroquinazolin-8-yl)ethyl)amino)-N-(methylsulfonyl) picolinamide] yielded an IC50 [1, 3] of 0.25 to 0.5 µM and an IC50 [2, 4] of 1 to 5 µM.

With `Cc1cc([C@@H](C)Nc2ccc(Cl)nc2C(=O)NS(C)(=O)=O)c2nc(N3CCC(Oc4ccn(C)n4)CC3)n(C)c(=O)c2c1` [Compound 265, (R)-6-chloro-3-((1-(3,6-dimethyl-2-(4-((1-methyl-1H-pyrazol-3-yl)oxy)piperidin-1-yl)-4-oxo-3,4-dihydroquinazolin-8-yl)ethyl)amino)-N-(methylsulfonyl) picolinamide] the IC50 [1, 3] was under 0.25 µM and the IC50 [2, 4] was 1 to 5 µM.

`C[C@@H](Nc1ccc(Cl)nc1C(=O)NS(C)(=O)=O)c1cc(F)cc2c(=O)n(C)c(N3CCC(c4ccn(C)n4)CC3)nc12` [Compound 366, (R)-6-chloro-3-((1-(6-fluoro-3-methyl-2-(4-(1-methyl-1H-pyrazol-3-yl)piperidin-1-yl)-4-oxo-3,4-dihydroquinazolin-8-yl)ethyl)amino)-N-(methylsulfonyl) picolinamide] was tested, and the IC50 [1, 3] was under 0.25 µM and the IC50 [2, 4] was 1 to 5 µM.

For `Cc1cc([C@@H](C)Nc2ccc(Cl)nc2C(=O)NS(C)(=O)=O)c2nc(-c3cccc(Cl)c3Cl)n(C)c(=O)c2c1` [Compound 777, (R)-6-chloro-3-((1-(2-(2,3-dichlorophenyl)-3,6-dimethyl-4-oxo-3,4-dihydroquinazolin-8-yl)ethyl)amino)-N-(methylsulfonyl) picolinamide], the IC50 [1, 5] was 0.5 to 1 µM and the IC50 [2, 6] was at least 5 µM.

`Cc1cc([C@@H](C)Nc2ccc(Cl)nc2C(=O)NS(C)(=O)=O)c2nc(N3CCC(n4ncc5ccncc54)CC3)n(C)c(=O)c2c1` [Compound 258] showed an IC50 [1, 3] of under 0.25 µM and an IC50 [2, 4] of 1 to 5 µM.

With `Cc1cc([C@@H](C)Nc2ccc(Cl)nc2C(=O)NS(C)(=O)=O)c2nc(-c3ccc(-c4ccn(C)n4)c(F)c3)n(C)c(=O)c2c1` [Compound 787, (R)-6-chloro-3-((1-(2-(3-fluoro-4-(1-methyl-1H-pyrazol-3-yl)phenyl)-3,6-dimethyl-4-oxo-3,4-dihydroquinazolin-8-yl)ethyl)amino)-N-(methylsulfonyl) picolinamide] the IC50 [1, 5] was under 0.25 µM and the IC50 [2, 6] was 1 to 5 µM.

`COc1ccccc1-n1cc2c(n1)CN(c1nc3c([C@@H](C)Nc4ccc(Cl)nc4C(=O)NS(C)(=O)=O)cc(C)cc3c(=O)n1C)C2` [Compound 705, (R)-6-chloro-3-((1-(2-(2-(2-methoxyphenyl)-2,6-dihydropyrrolo[3,4-c]pyrazol-5(4H)-yl)-3,6-dimethyl-4-oxo-3,4-dihydroquinazolin-8-yl)ethyl)amino)-N-(methylsulfonyl) picolinamide] showed an IC50 [1, 5] of 0.25 to 0.5 µM and an IC50 [2, 6] of at least 5 µM.

With `Cc1cc([C@@H](C)Nc2ccc(Cl)nc2C(=O)NS(C)(=O)=O)c2nc(N3CCN(c4ncc(Cl)cn4)CC3)n(C)c(=O)c2c1` [Compound 530, (R)-6-chloro-3-((1-(2-(4-(5-chloropyrimidin-2-yl)piperazin-1-yl)-3,6-dimethyl-4-oxo-3,4-dihydroquinazolin-8-yl)ethyl)amino)-N-(methylsulfonyl) picolinamide] the IC50 [1, 5] was 0.25 to 0.5 µM and the IC50 [2, 6] was at least 5 µM.

`Cc1cc([C@@H](C)Nc2ccc(Cl)nc2C(=O)NS(C)(=O)=O)c2nc(N3C[C@@H]4C[C@H]3CN4c3cnc(C)nc3)n(C)c(=O)c2c1` [Compound 576, 6-chloro-3-(((R)-1-(3,6-dimethyl-2-((1S,4S)-5-(2-methylpyrimidin-5-yl)-2,5-diazabicyclo[2.2.1]heptan-2-yl)-4-oxo-3,4-dihydroquinazolin-8-yl)ethyl)amino)-N-(methylsulfonyl) picolinamide] gave an IC50 [1, 5] of 0.5 to 1 µM and an IC50 [2, 6] of at least 5 µM.

`Cc1cc([C@@H](C)Nc2ccc(Cl)nc2C(=O)NS(C)(=O)=O)c2nc(-c3ccc(-c4ccn(C)n4)cn3)n(C)c(=O)c2c1` [Compound 838, (R)-6-chloro-3-((1-(3,6-dimethyl-2-(5-(1-methyl-1H-pyrazol-3-yl)pyridin-2-yl)-4-oxo-3,4-dihydroquinazolin-8-yl)ethyl)amino)-N-(methylsulfonyl) picolinamide] showed an IC50 [1, 5] of 0.25 to 0.5 µM and an IC50 [2, 6] of 1 to 5 µM.

With `Cc1cc([C@@H](C)Nc2ccc(Cl)nc2C(=O)NS(C)(=O)=O)c2nc(N3CCC(c4nn(C)cc4Cl)CC3)n(C)c(=O)c2c1` [Compound 702, (R)-6-chloro-3-((1-(2-(4-(4-chloro-1-methyl-1H-pyrazol-3-yl)piperidin-1-yl)-3,6-dimethyl-4-oxo-3,4-dihydroquinazolin-8-yl)ethyl)amino)-N-(methylsulfonyl) picolinamide] the IC50 [1, 5] was 0.25 to 0.5 µM and the IC50 [2, 6] was at least 5 µM.
